Assay results taken from PubChem BioAssay (NCI).
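The compound was tested at five concentrations on cells cultured in 96-well plates, with a 48-hour exposure period. Here, GI50 denotes the concentration required for 50% inhibition of growth. TGI marks complete inhibition of growth.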

How the values were obtained:
Test in all cases: NCI-60 cell line screen, 48 h
HCT-116 colon = test system: HCT-116 colon
SNB-19 CNS = test system: SNB-19 CNS
HOP-62 NSCLC = test system: HOP-62 NSCLC
SN12C renal = test system: SN12C renal
SK-MEL-5 melanoma = test system: SK-MEL-5 melanoma
NCI/ADR-RES ovarian = test system: NCI/ADR-RES ovarian
KM12 colon = test system: KM12 colon
SF-539 CNS = test system: SF-539 CNS
HCC-2998 colon = test system: HCC-2998 colon
A498 renal = test system: A498 renal
K-562 leukemia = test system: K-562 leukemia
SF-295 CNS = test system: SF-295 CNS
RXF 393 renal = test system: RXF 393 renal
OVCAR-4 ovarian = test system: OVCAR-4 ovarian
MDA-MB-231 breast = test system: MDA-MB-231 breast
UACC-257 melanoma = test system: UACC-257 melanoma
OVCAR-5 ovarian = test system: OVCAR-5 ovarian
NCI-H522 lung = test system: NCI-H522 lung
UACC-62 melanoma = test system: UACC-62 melanoma
MCF7 breast = test system: MCF7 breast
IGROV1 ovarian = test system: IGROV1 ovarian
SNB-75 CNS = test system: SNB-75 CNS
A549 NSCLC = test system: A549 NSCLC
SW-620 colon = test system: SW-620 colon
PC-3 prostate = test system: PC-3 prostate
HL-60(TB) leukemia = test system: HL-60(TB) leukemia
UO-31 renal = test system: UO-31 renal
SK-MEL-2 melanoma = test system: SK-MEL-2 melanoma
SK-MEL-28 melanoma = test system: SK-MEL-28 melanoma

CN([N-]C(=O)CC(=O)[N-]N(C)C(=S)c1ccccc1)C(=S)c1ccccc1.[Cu+2]
TGI (HCT-116 colon): 14 nM
GI50 (SNB-19 CNS): 129 nM
TGI (SNB-19 CNS): 261 nM
GI50 (HOP-62 NSCLC): 134 nM
TGI (HOP-62 NSCLC): 275 nM
GI50 (SN12C renal): 124 nM
TGI (SN12C renal): 253 nM
GI50 (SK-MEL-5 melanoma): 59.9 nM
TGI (SK-MEL-5 melanoma): 192 nM
GI50 (NCI/ADR-RES ovarian): < 26.1 nM
TGI (NCI/ADR-RES ovarian): 456 nM
GI50 (KM12 colon): 35.3 nM
TGI (KM12 colon): 152 nM
GI50 (SF-539 CNS): 142 nM
TGI (SF-539 CNS): 275 nM
GI50 (HCC-2998 colon): 59.8 nM
TGI (HCC-2998 colon): 176 nM
GI50 (A498 renal): 34.6 nM
TGI (A498 renal): 146 nM
GI50 (K-562 leukemia): < 10 nM
GI50 (SF-295 CNS): 63.5 nM
TGI (SF-295 CNS): 225 nM
GI50 (RXF 393 renal): 26.6 nM
TGI (RXF 393 renal): 72.9 nM
GI50 (OVCAR-4 ovarian): < 10 nM
TGI (OVCAR-4 ovarian): 61.9 nM
GI50 (MDA-MB-231 breast): 22.1 nM
TGI (MDA-MB-231 breast): 132 nM
GI50 (UACC-257 melanoma): < 10 nM
TGI (UACC-257 melanoma): 63 nM
GI50 (OVCAR-5 ovarian): 44.5 nM
TGI (OVCAR-5 ovarian): 175 nM
GI50 (NCI-H522 lung): < 13 nM
TGI (NCI-H522 lung): 28.1 nM
GI50 (UACC-62 melanoma): 33.2 nM
TGI (UACC-62 melanoma): 149 nM
GI50 (MCF7 breast): < 10 nM
TGI (MCF7 breast): 28.4 nM
GI50 (IGROV1 ovarian): < 10 nM
TGI (IGROV1 ovarian): 40.6 nM
GI50 (SNB-75 CNS): 29.8 nM
TGI (SNB-75 CNS): 116 nM
GI50 (A549 NSCLC): 22.3 nM
TGI (A549 NSCLC): 119 nM
GI50 (SW-620 colon): 20.6 nM
TGI (SW-620 colon): 108 nM
GI50 (PC-3 prostate): 10.1 nM
TGI (PC-3 prostate): 68.9 nM
GI50 (HL-60(TB) leukemia): 66.3 nM
GI50 (UO-31 renal): 66.6 nM
TGI (UO-31 renal): 231 nM
GI50 (SK-MEL-2 melanoma): 113 nM
TGI (SK-MEL-2 melanoma): 263 nM
GI50 (SK-MEL-28 melanoma): 35 nM
TGI (SK-MEL-28 melanoma): 127 nM
